Test results from PubChem BioAssay AID256 (DTP/NCI, 2004).
Several values for one entry are separate records, joined by “and”; a condition that tells them apart may be missing. Identical values can stand only once. Inconclusive results and toxic doses are left out. How the source made its calls: active means survival T/C of 150% or more; inactive means T/C below 125% in these data.

System: CD2F1 mice, L1210 leukemia ip, survival T/C
Test: NCI In Vivo Anticancer Drug Screen. Data for tumor model L1210 Leukemia (intraperitoneal) in CD2F1 (CDF1) mice
Conditions: higher = longer survival
How it was run: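 Mice carrying a transplanted tumor received test compound or vehicle alone. The value is the measurement in the treated group divided by that in the vehicle-treated control group.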

[1] = endpoint: mean survival time, dose: 50.0 mg/kg/injection, schedule: Q01DX009 (ip), vehicle: Klucel (hydroxypropylcellulose) (HPC)
[2] = endpoint: mean survival time, dose: 100.0 mg/kg/injection, schedule: Q04DX003 (ip), vehicle: saline with Tween-80
[3] = endpoint: mean survival time, dose: 100.0 mg/kg/injection, schedule: Q01DX009 (ip), vehicle: saline with Tween-80
[4] = endpoint: mean survival time, dose: 200.0 mg/kg/injection, schedule: Q01DX009 (ip), vehicle: saline with Tween-80
[5] = endpoint: mean survival time, dose: 200.0 mg/kg/injection, schedule: Q04DX003 (ip), vehicle: saline with Tween-80
[6] = endpoint: mean survival time, dose: 400.0 mg/kg/injection, schedule: Q01DX009 (ip), vehicle: saline with Tween-80

Measured: T/C

Nc1nc2ccc(Cl)cc2[nH]1
inactive: [1] 93 % of control | endpoint: mean survival time, dose: 100.0 mg/kg/injection, schedule: Q01DX009 (ip), vehicle: Klucel (hydroxypropylcellulose) (HPC) 91 % of control

CC(=O)OCC1OC([S][Sb]([CH3])[CH3])C(OC(C)=O)C(OC(C)=O)C1OC(C)=O (stereo not drawn)
inactive: [1] 92 % of control

Cc1ccc(C(=O)NN)cc1
inactive: endpoint: mean survival time, dose: 25.0 mg/kg/injection, schedule: Q04DX003 (ip), vehicle: saline with Tween-80 96 % of control | endpoint: mean survival time, dose: 50.0 mg/kg/injection, schedule: Q04DX003 (ip), vehicle: saline with Tween-80 96 % of control | [2] 95 % of control and 107 % of control

OCC#CCOCC(O)CCl (stereo not drawn)
inactive: endpoint: mean survival time, dose: 25.0 mg/kg/injection, schedule: Q01DX009 (ip), vehicle: water 107 % of control | endpoint: mean survival time, dose: 50.0 mg/kg/injection, schedule: Q01DX009 (ip), vehicle: water 98 % of control | endpoint: mean survival time, dose: 100.0 mg/kg/injection, schedule: Q01DX009 (ip), vehicle: water 104 % of control | endpoint: mean survival time, dose: 200.0 mg/kg/injection, schedule: Q01DX009 (ip), vehicle: water 97 % of control

NCC1CCC(C(=O)O)CC1 (stereo not drawn)
inactive: endpoint: median survival time, dose: 12.5 mg/kg/injection, schedule: Q01DX009 (ip), vehicle: saline with Tween-80 101 % of control | endpoint: median survival time, dose: 25.0 mg/kg/injection, schedule: Q01DX009 (ip), vehicle: saline with Tween-80 101 % of control | endpoint: median survival time, dose: 50.0 mg/kg/injection, schedule: Q01DX005 (ip), vehicle: saline with Tween-80 110 % of control | endpoint: median survival time, dose: 50.0 mg/kg/injection, schedule: Q01DX009 (ip), vehicle: saline with Tween-80 100 % of control | endpoint: median survival time, dose: 100.0 mg/kg/injection, schedule: Q01DX005 (ip), vehicle: saline with Tween-80 104 % of control | endpoint: median survival time, dose: 100.0 mg/kg/injection, schedule: Q01DX009 (ip), vehicle: saline with Tween-80 101 % of control | endpoint: median survival time, dose: 200.0 mg/kg/injection, schedule: Q01DX005 (ip), vehicle: saline with Tween-80 97 % of control | endpoint: median survival time, dose: 200.0 mg/kg/injection, schedule: Q01DX009 (ip), vehicle: saline with Tween-80 100 % of control | endpoint: median survival time, dose: 400.0 mg/kg/injection, schedule: Q01DX005 (ip), vehicle: saline with Tween-80 105 % of control | endpoint: median survival time, dose: 400.0 mg/kg/injection, schedule: Q01DX009 (ip), vehicle: saline with Tween-80 100 % of control | endpoint: median survival time, dose: 800.0 mg/kg/injection, schedule: Q01DX005 (ip), vehicle: saline with Tween-80 97 % of control

CC1(CO)C2CCC(CC2)C1CO (stereo not drawn)
inactive: endpoint: mean survival time, dose: 50.0 mg/kg/injection, schedule: Q01DX009 (ip), vehicle: saline with Tween-80 102 % of control | endpoint: mean survival time, dose: 100.0 mg/kg/injection, schedule: Q01DX001 (ip), vehicle: saline with Tween-80 95 % of control | [3] 96 % of control | endpoint: mean survival time, dose: 200.0 mg/kg/injection, schedule: Q01DX001 (ip), vehicle: saline with Tween-80 94 % of control | [4] 96 % of control

CCC(=O)c1cc([N+](=O)[O-])ccc1N
inactive: [2] 95 % of control | [5] 95 % of control

COc1cc(NC(=O)CC(C)=O)c(OC)cc1Cl
inactive: [3] 96 % of control | [4] 94 % of control | [6] 91 % of control

COc1ccc2nc3cc(Cl)ccc3c(Nc3ccc(C(O)CCN(C)C)cc3)c2c1 (stereo not drawn)
inactive: endpoint: mean survival time, dose: 75.0 mg/kg/injection, schedule: Q01DX001 (ip), vehicle: saline 92 % of control | endpoint: mean survival time, dose: 150.0 mg/kg/injection, schedule: Q01DX001 (ip), vehicle: saline 92 % of control | endpoint: mean survival time, dose: 300.0 mg/kg/injection, schedule: Q01DX001 (ip), vehicle: saline 90 % of control

CN(C)CCC(=O)/C=C\c1ccccc1
inactive: endpoint: mean survival time, dose: 100.0 mg/kg/injection, schedule: Q04DX003 (ip), vehicle: saline 89 % of control

COc1cccc2c1CCN1C3=C(CC(OC)CC3)C(=O)CC21 (stereo not drawn)
inactive: endpoint: mean survival time, dose: 25.0 mg/kg/injection, schedule: Q04DX002 (ip), vehicle: saline with Tween-80 93 % of control | endpoint: mean survival time, dose: 50.0 mg/kg/injection, schedule: Q04DX002 (ip), vehicle: saline with Tween-80 104 % of control | endpoint: mean survival time, dose: 100.0 mg/kg/injection, schedule: Q04DX002 (ip), vehicle: saline with Tween-80 96 % of control | [2] 101 % of control

CCCCCCCCCCCCCCCCOC(=O)c1cc([N+](=O)[O-])c(Sc2ncnc3nc[nH]c23)c([N+](=O)[O-])c1
inactive: endpoint: mean survival time, dose: 6.25 mg/kg/injection, schedule: Q01DX005 (ip), vehicle: other 105 % of control | endpoint: mean survival time, dose: 12.5 mg/kg/injection, schedule: Q01DX005 (ip), vehicle: other 110 % of control | endpoint: mean survival time, dose: 25.0 mg/kg/injection, schedule: Q01DX005 (ip), vehicle: other 107 % of control | endpoint: mean survival time, dose: 50.0 mg/kg/injection, schedule: Q01DX005 (ip), vehicle: other 117 % of control | endpoint: mean survival time, dose: 100.0 mg/kg/injection, schedule: Q01DX005 (ip), vehicle: other 102 % of control

NCCC(=O)O
inactive: [3] 98 % of control | [2] 89 % of control | [4] 97 % of control | [5] 104 % of control | [6] 97 % of control | endpoint: mean survival time, dose: 400.0 mg/kg/injection, schedule: Q04DX003 (ip), vehicle: saline with Tween-80 98 % of control

OC1CCC2=C(C1)C1CCC2C1 (stereo not drawn)
inactive: endpoint: mean survival time, dose: 12.5 mg/kg/injection, schedule: Q01DX009 (ip), vehicle: saline 98 % of control | endpoint: mean survival time, dose: 25.0 mg/kg/injection, schedule: Q01DX009 (ip), vehicle: saline 103 % of control | endpoint: mean survival time, dose: 50.0 mg/kg/injection, schedule: Q01DX009 (ip), vehicle: saline 97 % of control
